Experimental data: US11173150B2, “Method for diagnosing, preventing, and treating neurological diseases” (United States Government As Represented By The Department …, priority 2010, dated 2021)
≈ marks a conversion by molar mass, not a printed value. Like-named read-outs stand apart in the source and are kept apart here. Bridge positions count the residues as written; N and C are the ends. Square brackets hold non-standard residues; d marks the D form. Peptide text beside a SMILES is read from it. * marks the point of attachment. Octanoyl(6-Me) = CCC(C)CCCCC(=O)*; Dab = NCC[CH](N)C(=O)O

Key:
Desulfovibrio = test: Antimicrobial susceptibility testing, CLSI serial two-fold plate dilution; type: cell-based
[1] = cited from earlier work
tetanus toxin = tetanus toxin (Clostridium tetani, UniProt P04958); conditions: cited from earlier work
Sequence of tetanus toxin (P04958 whole entry, looked up): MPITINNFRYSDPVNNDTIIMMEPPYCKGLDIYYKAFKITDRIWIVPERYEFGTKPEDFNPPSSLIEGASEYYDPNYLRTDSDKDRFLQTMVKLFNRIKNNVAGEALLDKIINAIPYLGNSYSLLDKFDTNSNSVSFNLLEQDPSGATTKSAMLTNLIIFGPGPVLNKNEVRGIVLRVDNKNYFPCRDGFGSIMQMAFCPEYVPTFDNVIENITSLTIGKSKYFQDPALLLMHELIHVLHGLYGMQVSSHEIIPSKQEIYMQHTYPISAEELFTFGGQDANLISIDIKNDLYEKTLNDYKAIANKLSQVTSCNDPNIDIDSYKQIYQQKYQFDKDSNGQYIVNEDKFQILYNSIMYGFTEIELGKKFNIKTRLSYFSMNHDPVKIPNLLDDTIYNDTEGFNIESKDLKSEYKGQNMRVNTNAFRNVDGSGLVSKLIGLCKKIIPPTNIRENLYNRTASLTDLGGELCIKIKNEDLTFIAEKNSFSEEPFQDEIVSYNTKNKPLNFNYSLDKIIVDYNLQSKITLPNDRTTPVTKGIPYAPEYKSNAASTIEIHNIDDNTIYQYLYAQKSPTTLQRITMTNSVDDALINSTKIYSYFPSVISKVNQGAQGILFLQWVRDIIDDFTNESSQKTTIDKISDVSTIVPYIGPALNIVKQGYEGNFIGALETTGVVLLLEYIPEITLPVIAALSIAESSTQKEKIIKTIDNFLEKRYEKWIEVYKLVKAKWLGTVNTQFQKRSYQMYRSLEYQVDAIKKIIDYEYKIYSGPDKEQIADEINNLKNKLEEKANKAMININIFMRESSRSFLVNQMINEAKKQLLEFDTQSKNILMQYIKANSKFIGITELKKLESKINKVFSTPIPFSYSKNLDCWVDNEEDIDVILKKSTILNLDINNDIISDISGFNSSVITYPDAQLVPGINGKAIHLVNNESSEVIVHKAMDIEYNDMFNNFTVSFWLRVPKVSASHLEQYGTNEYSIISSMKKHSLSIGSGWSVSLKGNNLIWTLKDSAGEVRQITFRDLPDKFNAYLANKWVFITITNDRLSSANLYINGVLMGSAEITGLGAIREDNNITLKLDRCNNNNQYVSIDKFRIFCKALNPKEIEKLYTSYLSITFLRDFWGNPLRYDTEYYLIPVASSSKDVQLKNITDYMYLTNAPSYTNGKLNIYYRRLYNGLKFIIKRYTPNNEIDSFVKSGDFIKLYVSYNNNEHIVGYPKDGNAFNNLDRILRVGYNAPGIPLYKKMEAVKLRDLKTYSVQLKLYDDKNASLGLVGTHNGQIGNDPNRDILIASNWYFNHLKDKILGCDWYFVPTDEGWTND

clostridia = conditions: cited from earlier work
[2] = Desulfovibrio, Desulfovibrio strain 8951, read-out: MIC
[3] = Desulfovibrio, Desulfovibrio strain 11232, read-out: MIC
[4] = Desulfovibrio, Desulfovibrio strain 11437, read-out: MIC
[5] = Desulfovibrio, Desulfovibrio strain 11789, read-out: MIC
[6] = Desulfovibrio, Desulfovibrio strain 11830, read-out: MIC
[7] = Desulfovibrio, Desulfovibrio strain 12379, read-out: MIC
[8] = Desulfovibrio, Desulfovibrio strain 13966, read-out: MIC
[9] = Desulfovibrio, Desulfovibrio type strain 29098^T, read-out: MIC
[10] = Desulfovibrio type strain 7757^T
[11] = Desulfovibrio type strain 29098^T

With `C[C@H]1[C@H](NC(=O)/C(=N\OC(C)(C)C(=O)O)c2csc(N)n2)C(=O)N1S(=O)(=O)O` [Aztreonam] the MIC (Desulfovibrio; Desulfovibrio, Desulfovibrio strain 4019) was 512 µg/mL (≈ 1180 µM), the MIC (Desulfovibrio; Desulfovibrio, Desulfovibrio strain 8381) was 128 µg/mL (≈ 294 µM) and the MIC (Desulfovibrio; [2]) was 64 µg/mL (≈ 147 µM). For the same compound, the MIC (Desulfovibrio; Desulfovibrio, Desulfovibrio strain 9070) was 512 µg/mL (≈ 1180 µM), the MIC (Desulfovibrio; [3]) was 64 µg/mL (≈ 147 µM) and the MIC (Desulfovibrio; [4]) was 64 µg/mL (≈ 147 µM). The MIC (Desulfovibrio; [5]) was 32 µg/mL (≈ 73.5 µM), the MIC (Desulfovibrio; [6]) was 64 µg/mL (≈ 147 µM) and the MIC (Desulfovibrio; [7]) was 16 µg/mL (≈ 36.7 µM). The MIC (Desulfovibrio; [8]) was 24 µg/mL (≈ 55.1 µM), the MIC (Desulfovibrio; [9]) was 32 µg/mL (≈ 73.5 µM) and the “Absorption when given by the oral route” value ([1]; oral) was “virtually unabsorbed”.
For `C[C@H](CS)C(=O)N1CCC[C@H]1C(=O)O` [Captopril], the “Effect on tetanus toxin in vitro” value (tetanus toxin) is given as “inactivates”.
Work on `NC[C@H]1O[C@H](O[C@H]2[C@H](O)[C@@H](O[C@H]3O[C@H](CO)[C@@H](O)[C@H](N)[C@H]3O)[C@H](N)C[C@@H]2N)[C@H](O)[C@@H](O)[C@@H]1O` [Kanamycin] yielded an MIC (Desulfovibrio; Desulfovibrio, Desulfovibrio strain 4019, read-out: MIC) of 512 µg/mL (≈ 1060 µM), an MIC (Desulfovibrio; Desulfovibrio, Desulfovibrio strain 8236, read-out: MIC) of 512 µg/mL (≈ 1060 µM) and an MIC (Desulfovibrio; Desulfovibrio, Desulfovibrio strain 8381, read-out: MIC) of 256 µg/mL (≈ 528 µM). It also gave an MIC (Desulfovibrio; Desulfovibrio, Desulfovibrio strain 8907, read-out: MIC) of 256 µg/mL (≈ 528 µM), an MIC (Desulfovibrio; Desulfovibrio, Desulfovibrio strain 8933, read-out: MIC) of 512 µg/mL (≈ 1060 µM) and an MIC (Desulfovibrio; [2]) of 512 µg/mL (≈ 1060 µM). It also gave an MIC (Desulfovibrio; Desulfovibrio, Desulfovibrio strain 9070, read-out: MIC) of 512 µg/mL (≈ 1060 µM), an MIC (Desulfovibrio; Desulfovibrio, Desulfovibrio strain 9120, read-out: MIC) of 256 µg/mL (≈ 528 µM) and an MIC (Desulfovibrio; Desulfovibrio, Desulfovibrio strain 9706, read-out: MIC) of 256 µg/mL (≈ 528 µM). The MIC (Desulfovibrio; Desulfovibrio, Desulfovibrio strain 9976, read-out: MIC) was 128 µg/mL (≈ 264 µM), the MIC (Desulfovibrio; Desulfovibrio, Desulfovibrio strain 10831, read-out: MIC) was 256 µg/mL (≈ 528 µM) and the MIC (Desulfovibrio; Desulfovibrio, Desulfovibrio strain 11081, read-out: MIC) was 512 µg/mL (≈ 1060 µM). It also gave an MIC (Desulfovibrio; Desulfovibrio, Desulfovibrio strain 11094, read-out: MIC) of 512 µg/mL (≈ 1060 µM), an MIC (Desulfovibrio; [3]) of 256 µg/mL (≈ 528 µM) and an MIC (Desulfovibrio; Desulfovibrio, Desulfovibrio strain 11346, read-out: MIC) of 512 µg/mL (≈ 1060 µM). For the same compound, the MIC (Desulfovibrio; Desulfovibrio, Desulfovibrio strain 11378, read-out: MIC) was 512 µg/mL (≈ 1060 µM), the MIC (Desulfovibrio; [4]) was 128 µg/mL (≈ 264 µM) and the MIC (Desulfovibrio; Desulfovibrio, Desulfovibrio strain 11568, read-out: MIC) was 512 µg/mL (≈ 1060 µM). For the same compound, the MIC (Desulfovibrio; Desulfovibrio, Desulfovibrio strain 11623, read-out: MIC) was 256 µg/mL (≈ 528 µM), the MIC (Desulfovibrio; Desulfovibrio, Desulfovibrio strain 11717, read-out: MIC) was 512 µg/mL (≈ 1060 µM) and the MIC (Desulfovibrio; [5]) was 256 µg/mL (≈ 528 µM). The MIC (Desulfovibrio; [6]) was 128 µg/mL (≈ 264 µM), the MIC (Desulfovibrio; Desulfovibrio, Desulfovibrio strain 11949, read-out: MIC) was 128 µg/mL (≈ 264 µM) and the MIC (Desulfovibrio; [7]) was 512 µg/mL (≈ 1060 µM). The MIC (Desulfovibrio; [8]) was 512 µg/mL (≈ 1060 µM), the MIC (Desulfovibrio; Desulfovibrio, Desulfovibrio type strain 7757^T, read-out: MIC) was 512 µg/mL (≈ 1060 µM) and the MIC (Desulfovibrio; [9]) was 128 µg/mL (≈ 264 µM). For the same compound, the “Absorption when given by the oral route” value ([1]; in vivo, po) was “virtually unabsorbed”.
For `CCC(C)CCCCC(=O)NC(CCN)C(=O)NC(C(=O)NC(CCN)C(=O)NC1CCNC(=O)C(C(C)O)NC(=O)C(CCN)NC(=O)C(CCN)NC(=O)C(CC(C)C)NC(=O)C(Cc2ccccc2)NC(=O)C(CCN)NC1=O)C(C)O` (stereo not shown) [Polymyxin B] ({Octanoyl(6-Me)}-[Dab]T[Dab][Dab][Dab]FL[Dab][Dab]T; lactam 4-C; configuration not given here), the MIC (Desulfovibrio; Desulfovibrio strain 4019) was 256 µg/mL (≈ 213 µM), the MIC (Desulfovibrio; Desulfovibrio strain 8236) was 256 µg/mL (≈ 213 µM) and the MIC (Desulfovibrio; Desulfovibrio strain 8381) was over 512 µg/mL. For the same compound, the MIC (Desulfovibrio; Desulfovibrio strain 8907) was over 512 µg/mL, the MIC (Desulfovibrio; Desulfovibrio strain 8933) was over 512 µg/mL and the MIC (Desulfovibrio; Desulfovibrio strain 8951) was over 512 µg/mL. For the same compound, the MIC (Desulfovibrio; Desulfovibrio strain 9070) was over 512 µg/mL, the MIC (Desulfovibrio; Desulfovibrio strain 9120) was over 512 µg/mL and the MIC (Desulfovibrio; Desulfovibrio strain 9706) was over 512 µg/mL. The MIC (Desulfovibrio; Desulfovibrio strain 9976) was over 512 µg/mL, the MIC (Desulfovibrio; Desulfovibrio strain 10831) was 128 µg/mL (≈ 106 µM) and the MIC (Desulfovibrio; Desulfovibrio strain 11081) was 256 µg/mL (≈ 213 µM). It also gave an MIC (Desulfovibrio; Desulfovibrio strain 11094) of 256 µg/mL (≈ 213 µM), an MIC (Desulfovibrio; Desulfovibrio strain 11232) of over 512 µg/mL and an MIC (Desulfovibrio; Desulfovibrio strain 11346) of over 512 µg/mL. For the same compound, the MIC (Desulfovibrio; Desulfovibrio strain 11378) was 256 µg/mL (≈ 213 µM), the MIC (Desulfovibrio; Desulfovibrio strain 11437) was over 512 µg/mL and the MIC (Desulfovibrio; Desulfovibrio strain 11568) was over 512 µg/mL. The MIC (Desulfovibrio; Desulfovibrio strain 11623) was over 512 µg/mL, the MIC (Desulfovibrio; Desulfovibrio strain 11717) was 256 µg/mL (≈ 213 µM) and the MIC (Desulfovibrio; Desulfovibrio strain 11789) was 16 µg/mL (≈ 13.3 µM). For the same compound, the MIC (Desulfovibrio; Desulfovibrio strain 11830) was 128 µg/mL (≈ 106 µM), the MIC (Desulfovibrio; Desulfovibrio strain 11949) was over 512 µg/mL and the MIC (Desulfovibrio; Desulfovibrio strain 12379) was 8 µg/mL (≈ 6.65 µM). It also gave an MIC (Desulfovibrio; Desulfovibrio strain 13966) of over 512 µg/mL, an MIC (Desulfovibrio; [10]) of 256 µg/mL (≈ 213 µM) and an MIC (Desulfovibrio; [11]) of 256 µg/mL (≈ 213 µM). For the same compound, the “Absorption when given by the oral route” value ([1]; oral) was “virtually unabsorbed” and the “Penetration of the intestinal mucosa” value ([1]; oral) was “do not penetrate the intestinal mucosa”.
Work on Colistin yielded an MIC (Desulfovibrio; Desulfovibrio strain 4019) of over 512 µg/mL, an MIC (Desulfovibrio; Desulfovibrio strain 8236) of over 512 µg/mL and an MIC (Desulfovibrio; Desulfovibrio strain 8381) of over 512 µg/mL. The MIC (Desulfovibrio; Desulfovibrio strain 8907) was over 512 µg/mL, the MIC (Desulfovibrio; Desulfovibrio strain 8933) was over 512 µg/mL and the MIC (Desulfovibrio; Desulfovibrio strain 8951) was over 512 µg/mL. For the same compound, the MIC (Desulfovibrio; Desulfovibrio strain 9070) was over 512 µg/mL, the MIC (Desulfovibrio; Desulfovibrio strain 9120) was over 512 µg/mL and the MIC (Desulfovibrio; Desulfovibrio strain 9706) was over 512 µg/mL. For the same compound, the MIC (Desulfovibrio; Desulfovibrio strain 9976) was over 512 µg/mL, the MIC (Desulfovibrio; Desulfovibrio strain 10831) was over 512 µg/mL and the MIC (Desulfovibrio; Desulfovibrio strain 11081) was over 512 µg/mL. For the same compound, the MIC (Desulfovibrio; Desulfovibrio strain 11094) was over 512 µg/mL, the MIC (Desulfovibrio; Desulfovibrio strain 11232) was over 512 µg/mL and the MIC (Desulfovibrio; Desulfovibrio strain 11346) was over 512 µg/mL. For the same compound, the MIC (Desulfovibrio; Desulfovibrio strain 11378) was over 512 µg/mL, the MIC (Desulfovibrio; Desulfovibrio strain 11437) was over 512 µg/mL and the MIC (Desulfovibrio; Desulfovibrio strain 11568) was over 512 µg/mL. For the same compound, the MIC (Desulfovibrio; Desulfovibrio strain 11623) was over 512 µg/mL, the MIC (Desulfovibrio; Desulfovibrio strain 11717) was over 512 µg/mL and the MIC (Desulfovibrio; Desulfovibrio strain 11789) was over 512 µg/mL. For the same compound, the MIC (Desulfovibrio; Desulfovibrio strain 11830) was over 512 µg/mL, the MIC (Desulfovibrio; Desulfovibrio strain 11949) was over 512 µg/mL and the MIC (Desulfovibrio; Desulfovibrio strain 12379) was over 512 µg/mL. For the same compound, the MIC (Desulfovibrio; Desulfovibrio strain 13966) was over 512 µg/mL, the MIC (Desulfovibrio; [10]) was over 512 µg/mL and the MIC (Desulfovibrio; [11]) was over 512 µg/mL. The “Absorption when given by the oral route” value ([1]; oral) was “virtually unabsorbed” and the “Penetration of the intestinal mucosa” value ([1]; oral) was “do not penetrate the intestinal mucosa”.
Trimethoprim/sulfamethoxazole [TMX/Sul] showed an MIC (Desulfovibrio; Desulfovibrio strain 8381) of 256 µg/mL, an MIC (Desulfovibrio; Desulfovibrio strain 8907) of 512 µg/mL and an MIC (Desulfovibrio; Desulfovibrio strain 8933) of 256 µg/mL. The MIC (Desulfovibrio; Desulfovibrio strain 8951) was 256 µg/mL, the MIC (Desulfovibrio; Desulfovibrio strain 9070) was over 512 µg/mL and the MIC (Desulfovibrio; Desulfovibrio strain 9120) was 256 µg/mL. The MIC (Desulfovibrio; Desulfovibrio strain 9706) was 256 µg/mL, the MIC (Desulfovibrio; Desulfovibrio strain 9976) was 256 µg/mL and the MIC (Desulfovibrio; Desulfovibrio strain 11232) was 128 µg/mL. It also gave an MIC (Desulfovibrio; Desulfovibrio strain 11346) of 512 µg/mL, an MIC (Desulfovibrio; Desulfovibrio strain 11437) of 4 µg/mL and an MIC (Desulfovibrio; Desulfovibrio strain 11568) of over 512 µg/mL. For the same compound, the MIC (Desulfovibrio; Desulfovibrio strain 11623) was 512 µg/mL, the MIC (Desulfovibrio; Desulfovibrio strain 11949) was 512 µg/mL and the MIC (Desulfovibrio; Desulfovibrio strain 13966) was 512 µg/mL. It also gave an MIC (Desulfovibrio; [10]) of over 512 µg/mL and an MIC (Desulfovibrio; [11]) of 256 µg/mL.
For ramoplanin, the “Systemic absorption in humans” value ([1]; humans) is given as “not detectably absorbed” and the Activity against clostridia (clostridia) is given as “very good activity”.
